pIC50: −log10 of the molar value.

Data on four molecules can be found in patent publication US5264586A, “Analogs of calicheamicin gamma1I, method of making and using the same” (priority 1992, dated 1993).

For assay [1], the system named is ATCC HL-60 (promyeocytic leukemia). Put plainly: Sulforhodamine B cytotoxicity assay, HL-60. It counts as cell-based. Conditions: 72 hours, SRB. On the procedure: (§1) Sulfurodamine B Cytotoxicity Assay
(§2) Cytotoxicity assays using (-)-calicheamicinone were carried out as follows:
(§3) 1. Preparation of target cells in 96-well plates
(§4) g. Adjust volume of cell suspension with T.C. media to give a density of 1×10^5 cells/mL.
(§5) j. Incubate plates for 24 hours at 37° C., 5-10 percent CO2 in a humidified incubator.
(§6) a. Stock drug solutions were prepared by dissolving drug in the appropriate solvent (determined during chemical characterization studies) and sterile filtering the drug-solvent solution through a sterile 0.2 μ filter unit. An aliquot was taken from each filtered drug solution and the O.D. was measured to determine the drug concentration.
(§7) b. Dilute the stock drug solution prepared above with T.C. medium to the desired initial concentration (10^-2 -10^-4 M). A minimum volume of 220 μL of diluted drug is required per 96-well plate used in the assay.
(§8) b. Add 100 μL of the initial compound dilution to adjacent duplicate wells in Columns #2. (Four materials can be tested in duplicate per 96-well plate.)
(§9) d. Transfer 10 μL to the appropriate wells in Column #4 and continue to make 1:10 dilutions of compound across the plate through Column #12.
f. […]
(§10) g. Read plates on a microtiter plate reader at […].
(§11) IC50 values; i.e., the concentration of Compound required to kill one-half of the treated cells, were then calculated. […]
Background: Sulforhodamine B stains cellular protein and so reports cell mass.

The test system of another assay is UCLA-P3 (lung carcinoma). Put plainly: Sulforhodamine B cytotoxicity assay, UCLA-P3. It counts as cell-based. The settings on record: SRB. On the procedure: as §1, §2, §3, §4, §5, §6, §7, §8, §9
f. […]
as §10, §11

Assay [2] deals with CHO (Chinese hampster ovary). Put plainly: Sulforhodamine B cytotoxicity assay, CHO. The settings on record: 72 hours, SRB. It is filed as cell-based. On the procedure: as §1, §2, §3, §4, §5, §6, §7, §8, §9
f. […]
as §10, §11

Assay [3] relates to ATCC Molt-4 (T-cell leukemia). Put plainly: Sulforhodamine B cytotoxicity assay, Molt-4. It counts as cell-based. Conditions: 72 hours, SRB. On the procedure:
as §1, §2, §3, §4, §5, §6, §7, §8, §9
f. […]
as §10, §11

Another assay deals with H-322 (lung carcinoma). Put plainly: Sulforhodamine B cytotoxicity assay, H-322. It counts as cell-based. Conditions: NCI-H322, 72 hours, SRB. The procedure: as §1, §2, §3, §4, §5, §6, §7, §8, §9
f. […]
as §10, §11

Assay [4] has as its system ATCC Ovcar 3 (Ovarian carcinoma). Put plainly: Sulforhodamine B cytotoxicity assay, Ovcar 3. The settings on record: 72 hours, SRB. It counts as cell-based. The procedure:
as §1, §2, §3, §4, §5, §6, §7, §8, §9
f. […]
as §10, §11

The test system of assay [5] is ATCC P-388 (Mouse leukemia). Put plainly: Sulforhodamine B cytotoxicity assay, P-388. It is filed as cell-based. The settings on record: SRB. The procedure:
as §1, §2, §3, §4, §5, §6, §7, §8, §9
f. […]
as §10, §11

The test system of assay [6] is ATCC MCF-7 (Breast carcinoma). Put plainly: Sulforhodamine B cytotoxicity assay, MCF-7. Conditions: SRB. It counts as cell-based. The procedure:
as §1, §2, §3, §4, §5, §6, §7, §8, §9
f. […]
as §10, §11

In assay [7] the test system is ATCC Capan-1 (pancreatic carcinoma). Put plainly: Sulforhodamine B cytotoxicity assay, Capan-1. Conditions: 72 hours, SRB. It counts as cell-based. On the procedure:
as §1, §2, §3, §4, §5, §6, §7, §8, §9
f. […]
as §10, §11

Assay [8] deals with NHDF (Normal human dermal fibroblast). Put plainly: Sulforhodamine B cytotoxicity assay, NHDF. It counts as cell-based. The settings on record: 72 hours, SRB. The procedure: as §1, §2, §3, §4, §5, §6, §7, §8, §9
f. […]
as §10, §11

For assay [9], the system named is ATCC HT-29 (Colon carcinoma). Put plainly: Sulforhodamine B cytotoxicity assay, HT-29. It counts as cell-based. Conditions: 72 hours, SRB. The procedure:
as §1, §2, §3, §4, §5, §6, §7, §8, §9
f. […]
as §10, §11

Assay [10] deals with ATCC SK-MEL-28 (Melanoma). Put plainly: Sulforhodamine B cytotoxicity assay, SK-MEL-28. It counts as cell-based. The settings on record: 72 hours, SRB. The procedure: as §1, §2, §3, §4, §5, §6, §7, §8, §9
f. […]
as §10, §11

In a further assay the test system is murine tumors. Conditions: cited from earlier work.
The test system of a further assay is DNA. The settings on record: double stranded DNA; cited from earlier work.

As to `COc1cccc2c1C(=O)c1c(O)c3c(c(O)c1C2=O)C[C@@](O)(C(C)=O)C[C@@H]3O[C@H]1C[C@H](N)[C@H](O)[C@H](C)O1` [Daunomycin, daunomycin], the pIC50 was 6.70 in [1] (Homo sapiens); 5.80 with UCLA-P3 (lung carcinoma) (Homo sapiens, UCLA P-3, 72 hours); 5.80 in assay [2]; 10.00 in [3] (Homo sapiens); 5.80 in the assay on H-322 (lung carcinoma); 6.41 in assay [4] (Homo sapiens). Moreover, the pIC50 in assay [5] (Mus musculus, P388, 72 hours) was 6.70; in assay [6] (Homo sapiens, MCF7, 72 hours), 6.41; in [7] (Homo sapiens), 6.11; in assay [8] (Homo sapiens), 6.41; in [9] (Homo sapiens), 5.80; in assay [10] (Homo sapiens) it was 5.80.
`CCN[C@H]1CO[C@@H](O[C@H]2[C@H](O[C@H]3C#C/C=C\C#C[C@]4(O)CC(=O)C(NC(=O)OC)=C3/C4=C\CSSSC)O[C@H](C)[C@@H](NO[C@H]3C[C@H](O)[C@H](SC(=O)c4c(C)c(I)c(O[C@@H]5O[C@@H](C)[C@H](O)[C@@H](OC)[C@H]5O)c(OC)c4OC)[C@@H](C)O3)[C@@H]2O)C[C@@H]1OC` [calicheamicin]: the “optimal dose against murine tumors” value in the assay on murine tumors (murine tumors) is 0.5-1.5 microgram (μg) per kilogram (kg) of body weight. In addition, in the assay on murine tumors (vs adriamycin), the “activity relative to adriamycin against murine tumors” value is listed as “about 1000 -fold more active”. The “DNA cleavage site / sequence specificity” value in the assay on DNA is reported as 5' side of a TCCT sequence.
Turning to `COC(=O)NC1=C2/C(=C\CSSSC)[C@](O)(C#C/C=C\C#C[C@@H]2O)CC1=O` [(-)-calicheamicinone, (-)-Calicheamicinone], the pIC50 is 6.70 in [1]; 4.60 in the assay on UCLA-P3 (lung carcinoma) (72 hours); 4.20 in [2]; 9.00 in assay [3]; 4.60 in assay [4]; 6.41 in [5] (72 hours). The pIC50 was 4.89 in assay [6] (72 hours); 5.51 in assay [7]; 4.89 in [8]; 4.55 in assay [9]; 4.60 in assay [10].
Consider Neocarzinostatin, for which, in the assay with DNA, the “DNA cleavage site / sequence specificity” value is “sequence-specificity in its DNA cleavage”.

What is called pIC50 is the negative decadic logarithm of the IC50, by convention in mol/L. Low readings indicate a large IC50, high ones a small IC50.
